In patent US11214803B2, “Modulators of YAP1 expression” (Ionis Pharmaceuticals, Inc., priority 2019, dated 2022):
Strand notation (5' to 3'): a small letter for the sugar, then the base; units joined by * are phosphorothioate-linked, units joined directly phosphodiester-linked; [ ] holds rarer units or linkages, { } end groups; capitals alone tell only the bases. k = constrained ethyl (cEt); [5mC] = 5-methylcytosine; d = 2'-deoxy (DNA)

Experiments:
Format in all cases: cell-based
Yap1 mRNA [1] = assay: Dose-dependent inhibition of human Yap1 in A-431 cells (Example 8, 10,000 cells per well, RTS4814); conditions: A-431 cells; for IC50: Yap1 mRNA
Procedure, shortened: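 Yap1 mRNA, normalized to RIBOGREEN total RNA and expressed as % untreated control, was read with RTS4814 about 48 h after free-uptake oligonucleotide treatment of A-431 cells at 10,000 cells/well. IC50 derived by linear regression of log/linear data.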

Yap1 mRNA [2] = assay: Antisense inhibition of human Yap1 in A-431 cells by cEt gapmers, single dose (Example 4, RTS4814)
Procedure, shortened: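 Values are % UTC: Yap1 mRNA by quantitative RT-PCR, normalized to RIBOGREEN total RNA. Cells were exposed ~48 h to 2,000 nM oligonucleotide without transfection. Oligonucleotides were 16-nucleoside gapmers with three cEt nucleosides per wing, ten-deoxy gap, P=S linkages throughout.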

Yap1 mRNA [3] = assay: Antisense inhibition of human Yap1 in SNU-449 cells by modified oligonucleotides, single dose (Example 5, RTS36584); conditions: Yap1 mRNA, percent of untreated control; modified oligonucleotides targeting SEQ ID NO: 1 and 2; Table 47
Procedure, shortened: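 Values are % of untreated control: Yap1 mRNA by quantitative RT-PCR (RTS36584), normalized to RIBOGREEN total RNA. Oligonucleotides were dosed at 2,000 nM, free uptake, in SNU-449 cells, with roughly 48 h exposure before RNA isolation.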

[4] = Yap1 mRNA remaining as percent of untreated control, 3-10-3 cEt gapmers, A-431 cells, Table 36
[5] = Yap1 mRNA remaining as percent of untreated control, 3-10-3 cEt gapmers, A-431 cells, Table 37

Row | Substance | % UTC (Yap1 mRNA) (Yap1 mRNA [1]; 31.3 nM) [% UTC] | % UTC (Yap1 mRNA) (Yap1 mRNA [1]; 125.0 nM) [% UTC] | % UTC (Yap1 mRNA) (Yap1 mRNA [1]; 500.0 nM) [% UTC] | % UTC (Yap1 mRNA) (Yap1 mRNA [1]; 2000.00 nM) [% UTC] | IC50 (Yap1 mRNA [1]) [nM] | YAP1 (% UTC) (Yap1 mRNA [2]; [4]) | YAP1 (% UT) (Yap1 mRNA [3]) | YAP1 (% UTC) (Yap1 mRNA [2]; Table 14, A-431 cells, 5,000 cells per well, free uptake, 2,000 nM, approximately 48 hours, RTS4814, normalized to RIBOGREEN, Yap1 mRNA relative to untreated control, * = targets amplicon region of primer probe set) | YAP1 (% UTC) (Yap1 mRNA [2]; [5]) | YAP1 (% UTC) (Yap1 mRNA [2]; Table 16, A-431 cells, 5,000 cells per well, free uptake, 2,000 nM, approximately 48 hours, RTS4814, normalized to RIBOGREEN, Yap1 mRNA relative to untreated control cells) | YAP1 (% UTC) (Yap1 mRNA [2]; Table 17, A-431 cells, 5,000 cells per well, free uptake, 2,000 nM, approximately 48 hours, RTS4814, normalized to RIBOGREEN, Yap1 mRNA relative to untreated control cells)
1 | 1074230 (antisense kA*kA*kG*dA*dA*dG*dA*d[5mC]*dT*dG*dT*d[5mC]*dG*kA*kA*kG) [compound 1074230] | 62 | 30 | 12 | 8 | 50 | 4 |  |  |  |  | 
2 | 1074454 (kT*kG*kT*dG*dA*d[5mC]*dT*dA*dA*dT*dG*dA*dT*kA*kG*k[5mC]; antisense) [compound 1074454] | 39 | 9 | 3 | 3 | < 20 | 1 |  |  |  |  | 
3 | 1074464 (kT*kT*kA*dG*dA*dG*dT*dA*dT*dG*dT*dG*dG*k[5mC]*kA*kA) [Compound 1074464] |  |  |  |  |  |  | 5 | 2 |  |  | 
4 | 1074486 (kA*kT*kT*d[5mC]*dA*d[5mC]*dT*dA*dA*dT*dA*dT*dG*kG*kT*k[5mC]; antisense) [compound 1074486] | 55 | 26 | 10 | 6 | < 20 | 4 |  |  |  |  | 
5 | 1074487 (kA*kG*kA*dT*dT*d[5mC]*dA*d[5mC]*dT*dA*dA*dT*dA*kT*kG*kG; antisense) [compound 1074487] | 73 | 28 | 11 | 6 | 100 |  |  |  | 7 |  | 
6 | 1074678 (antisense kT*kA*kA*dT*d[5mC]*dT*dG*dT*dG*dG*d[5mC]*dT*dA*k[5mC]*kT*kG) [compound 1074678] | 73 | 37 | 16 | 10 | 100 | 7 |  |  |  |  | 
7 | 1074679 (antisense kT*k[5mC]*kT*dT*dA*dA*dT*d[5mC]*dT*dG*dT*dG*dG*k[5mC]*kT*kA) [compound 1074679] | 52 | 16 | 6 | 5 | < 20 |  |  |  | 5 |  | 
8 | 1074754 (k[5mC]*kT*kT*dT*dT*dA*d[5mC]*dA*dT*dT*dA*dG*dG*kA*kA*k[5mC]) [Compound 1074754] |  |  |  |  |  |  | 69 |  |  | 11 | 
9 | 1074755 (CACTTTTACATTAGGA; antisense; chemistry not fully specified) [Compound 1074755] |  |  |  |  |  |  | 23 |  |  |  | 3
10 | 1074775 (kG*kG*kT*dT*dT*dA*dT*dT*dG*dT*dA*dA*dA*kA*kG*k[5mC]; antisense) [compound 1074775] | 26 | 5 | 2 | 2 | < 20 |  |  |  | 3 |  | 
